Measurements: patent US20120165346A1, “Compounds and their use as BACE inhibitors” (ASTRAZENECA AB, priority 2010, published 2012)

Experiments:
[1] = test system: sAPPβ release, SH-SY5Y cells; assay: sAPPβ release assay; assay type: cell-based; details: Homo sapiens, compounds incubated 17 h
Procedure: SH-SY5Y cells were cultured in DMEM/F-12 with Glutamax, 10% FCS and 1% non-essential amino acids and cryopreserved and stored at −140° C. at a concentration of 7.5−9.5×10^6 cells per vial. Thaw cells and seed at a conc. of around 10000 cells/well in DMEM/F-12 with Glutamax, 10% FCS and 1% non-essential amino acids to a 384-well tissue culture treated plate, […] cell susp/well. The cell plates were then incubated for 7-24 h at 37° C., 5% CO2. The cell medium was removed, followed by addition of 30 μL compound diluted in DMEM/F-12 with Glutamax, 10% FCS, 1% non-essential amino acids and 1% PeSt to a final conc. of 1% DMSO. The compounds were incubated with the cells for 17 h (overnight) at 37° C., 5% CO2. Meso Scale Discovery (MSD) plates were used for the detection of sAPPβ release. MSD sAPPβ plates were blocked in 1% BSA in Tris wash buffer (40 μL/well) for 1 h on shake at r.t. and washed 1 time in Tris wash buffer (40 μL/well). 20 μL of medium was transferred to the pre-blocked and washed is MSD sAPPβ microplates, and the cell plates were further used in an ATP assay to measure cytotoxicity. The MSD plates were incubated with shaking at r.t. for 2 h and the media discarded. 10 μL detection antibody was added (1 nM) per well followed by incubation with shaking at r.t. for 2 h and then discarded. 40 μL Read Buffer was added per well and the plates were read in a SECTOR Imager.

[2] = target: T1, human β-Secretase (AA 1-AA 460), sBACE-Fc (Homo sapiens, UniProt P56817); assay: TR-FRET assay; assay type: biochemical; details: enzyme 2.7 μg/ml, substrate 100 nM, pH4.5, 15 minutes at r.t.
T1 construct: soluble part of the human β-Secretase (AA 1-AA 460) was cloned; Fc domain of IgG1; made in house
T1 sequence (P56817 22-460): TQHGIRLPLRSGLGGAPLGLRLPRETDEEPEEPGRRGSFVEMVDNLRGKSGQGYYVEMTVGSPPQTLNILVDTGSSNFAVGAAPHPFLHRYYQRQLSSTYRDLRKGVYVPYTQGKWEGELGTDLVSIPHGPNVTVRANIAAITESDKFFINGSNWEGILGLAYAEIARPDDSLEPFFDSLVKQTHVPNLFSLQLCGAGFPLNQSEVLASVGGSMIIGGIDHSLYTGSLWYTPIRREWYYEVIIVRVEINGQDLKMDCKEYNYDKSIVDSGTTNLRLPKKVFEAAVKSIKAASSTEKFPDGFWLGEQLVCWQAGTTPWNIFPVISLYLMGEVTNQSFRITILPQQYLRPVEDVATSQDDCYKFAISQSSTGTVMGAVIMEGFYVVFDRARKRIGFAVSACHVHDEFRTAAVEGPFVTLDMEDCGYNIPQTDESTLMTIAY
Procedure: The β-secretase enzyme used in the TR-FRET is prepared as follows:
(§1) The cDNA for the soluble part of the human β-Secretase (AA 1-AA 460) was cloned using the ASP2-Fc10-1-IRES-GFP-neoK mammalian expression vector. The gene was fused to the Fc domain of IgG1 (affinity tag) and stably cloned into HEK 293 cells.
The enzyme (truncated form) was diluted to 6 μg/mL (stock 1.3 mg/mL) and the substrate (Europium)[…](Qsy7) to 200 nM (stock 120 μM) in reaction buffer (NaAcetate, is chaps, triton x-100, EDTA pH4.5). The robotic systems Biomek FX and Velocity 11 were used for all liquid handling and the enzyme and substrate solutions were kept on ice until they were placed in the robotic system. Enzyme (9 μA) was added to the plate then 1 μA of compound in dimethylsulphoxide was added, mixed and pre-incubated for 10 minutes. Substrate (10 μA) was then added, mixed and the reaction proceeded for 15 minutes at r.t. The reaction was stopped with the addition of Stop solution (7 μl, NaAcetate, pH 9). The fluorescence of the product was measured on a Victor II plate reader with an excitation wavelength of 340 nm and an emission wavelength of 615 nm. The assay was performed in a Costar 384 well round bottom, low volume, non-binding surface plate (Corning #3676). […] The dimethylsulphoxide control, instead of test compound, defined the 100% activity level and 0% activity was defined by wells lacking enzyme (replaced with reaction buffer).

[3] = target: T1, human β-Secretase (AA 1-AA 460), sBACE-Fc; assay: Diluted TR-FRET assay; assay type: biochemical; details: footnote a: diluted FRET assay, 50 times less enzyme, 6.5 h reaction time at r.t.; read-out: IC50 in TR-FRET assay (IC50 from the diluted FRET assay)
Procedure: as §1
The robotic systems Biomek FX and Velocity 11 were used for all liquid handling and the enzyme and substrate solutions were kept on ice until they were placed in the robotic system. Enzyme (9 μA) was added to the plate then 1 μA of compound in dimethylsulphoxide was added, mixed and pre-incubated for 10 minutes. Substrate (10 μA) was then added, mixed and the reaction proceeded for 15 minutes at r.t. The reaction was stopped with the addition of Stop solution (7 μl, NaAcetate, pH 9). […] The dimethylsulphoxide control, instead of test compound, defined the 100% activity level and 0% activity was defined by wells lacking enzyme (replaced with reaction buffer).

Structure (SMILES)	IC50 [1] [nM]	IC50 [2] [nM]	IC50 [3] [nM]
CC#Cc1cccc(-c2cccc([C@@]3(c4cc(C)c(=O)n(CC)c4)N=C(N)c4c(F)cccc43)c2)n1 [Example 24, (R)-5-(3-Amino-4-fluoro-1-(3-(6-(prop-1-ynyl)pyridin-2-yl)phenyl)-1H-isoindol-1-yl)-1-ethyl-3-methylpyridin-2(1H)-one]	22	140	–
COc1cncc(-c2cccc(C3(c4cc(C(F)(F)F)c(=O)n(C)c4)N=C(N)c4c(F)cccc43)c2)c1 (centres unmarked) [Example 11, 5-(3-Amino-4-fluoro-1-(3-(5-methoxypyridin-3-yl)phenyl)-1H-isoindol-1-yl)-1-methyl-3-(trifluoromethyl)pyridin-2(1H)-one]	46	54	–
Cn1cc(C2(c3cccc(-c4cncc(C#N)c4)c3)N=C(N)c3c(F)cccc32)cc(C(F)(F)F)c1=O (centres unmarked) [Example 10, 5-(3-(3-Amino-4-fluoro-1-(1-methyl-6-oxo-5-(trifluoromethyl)-1,6-dihydropyridin-3-yl)-1H-isoindol-1-yl)phenyl)nicotinonitrile]	20	89	–
Cc1cc(C2(c3cccc(-c4cncnc4)c3)N=C(N)c3c(F)cccc32)cn(C)c1=O (centres unmarked) [Example 14, 5-(3-Amino-4-fluoro-1-(3-(pyrimidin-5-yl)phenyl)-1H-isoindol-1-yl)-1,3-dimethylpyridin-2(1H)-one]	11	58	–
Cc1cc(C2(c3cccc(-c4cncc(C#N)c4)c3)N=C(N)c3c(F)cccc32)cn(C)c1=O (centres unmarked) [Example 17, 5-(3-(3-Amino-1-(1,5-dimethyl-6-oxo-1,6-dihydropyridin-3-yl)-4-fluoro-1H-isoindol-1-yl)phenyl)nicotinonitrile]	17	66	–
CC#Cc1cncc(-c2cc(C3(c4cc(C)c(=O)n(CC)c4)N=C(N)c4c(F)cccc43)ccn2)c1 (single isomer, unassigned) [Example 26a, 5-(3-amino-4-fluoro-1-(5′-(prop-1-ynyl)-2,3′-bipyridin-4-yl)-1H-isoindol-1-yl)-1-ethyl-3-methylpyridin-2(1H)-one]	–	8350	–
Cn1cc(C2(c3cccc(-c4cncnc4)c3)N=C(N)c3c(F)cccc32)cc(C(F)(F)F)c1=O (centres unmarked) [Example 13, 5-(3-Amino-4-fluoro-1-(3-(pyrimidin-5-yl)phenyl)-1H-isoindol-1-yl)-1-methyl-3-(trifluoromethyl)pyridin-2(1H)-one]	24	81	–
Cc1cc(C2(c3ccnc(-c4cncc(Cl)c4)c3)N=C(N)c3c(F)cccc32)cn(C)c1=O (centres unmarked) [Example 15, 5-(3-Amino-1-(5′-chloro-2,3′-bipyridin-4-yl)-4-fluoro-1H-isoindol-1-yl)-1,3-dimethylpyridin-2(1H)-one]	14	104	–
CCn1cc([C@]2(c3cccc(-c4cncc(C)c4F)c3)N=C(N)c3c(F)cccc32)cc(C)c1=O [Example 4, (R)-5-(3-Amino-4-fluoro-1-(3-(4-fluoro-5-methylpyridin-3-yl)phenyl)-1H-isoindol-1-yl)-1-ethyl-3-methylpyridin-2(1H)-one]	55	51	–
Cc1cc(C2(c3cccc(-c4cncc(C#N)c4)c3)N=C(N)c3c(F)cccc32)cn(C(C)C)c1=O (centres unmarked) [Example 5, 5-(3-(3-Amino-4-fluoro-1-(1-isopropyl-5-methyl-6-oxo-1,6-dihydropyridin-3-yl)-1H-isoindol-1-yl)phenyl)nicotinonitrile]	10	58	–
CCn1cc(C2(c3cccc(-c4cncc(F)c4)c3)N=C(N)c3c(F)cccc32)cc(C(F)F)c1=O (centres unmarked) [Example 22, 5-(3-Amino-4-fluoro-1-(3-(5-fluoropyridin-3-yl)phenyl)-1H-isoindol-1-yl)-3-(difluoromethyl)-1-ethylpyridin-2(1H)-one]	9	70	–

Other lines, results leading:

IC50 [1] [nM]	IC50 [2] [nM]	IC50 [3] [nM]	Structure (SMILES)
9	–	16	CCn1cc(C2(c3cccc(-c4cncnc4)c3)N=C(N)c3c(F)cccc32)cc(C)c1=O (centres unmarked) [Example 6, 5-(3-Amino-4-fluoro-1-(3-(pyrimidin-5-yl)phenyl)-1H-isoindol-1-yl)-1-ethyl-3-methylpyridin-2(1H)-one]
0.7	–	4	CC#Cc1cncc(-c2cc(C3(c4cc(C)c(=O)n(CC)c4)N=C(N)c4c(F)cccc43)ccn2)c1 (single isomer, unassigned) [Example 26, 5-(3-amino-4-fluoro-1-(5′-(prop-1-ynyl)-2,3′-bipyridin-4-yl)-1H-isoindol-1-yl)-1-ethyl-3-methylpyridin-2(1H)-one]
8	62	–	Cn1cc(C2(c3cccc(-c4cncc(F)c4)c3)N=C(N)c3c(F)cccc32)cc(C(F)(F)F)c1=O (centres unmarked) [Example 12, 5-(3-Amino-4-fluoro-1-(3-(5-fluoropyridin-3-yl)phenyl)-1H-isoindol-1-yl)-1-methyl-3-(trifluoromethyl)pyridin-2(1H)-one]
4	38	–	Cc1cc(C2(c3cccc(-c4cncc(F)c4)c3)N=C(N)c3c(F)cccc32)cn(C(C)C)c1=O (centres unmarked) [Example 7, 5-(3-Amino-4-fluoro-1-(3-(5-fluoropyridin-3-yl)phenyl)-1H-isoindol-1-yl)-1-isopropyl-3-methylpyridin-2(1H)-one]
3	61	–	Cc1cc(C2(c3cccc(-c4cncc(F)c4)c3)N=C(N)c3c(F)cccc32)cn(C)c1=O (centres unmarked) [Example 19, 5-(3-Amino-4-fluoro-1-(3-(5-fluoropyridin-3-yl)phenyl)-1H-isoindol-1-yl)-1,3-dimethylpyridin-2(1H)-one]
2	–	6	CC#Cc1cncc(-c2cccc([C@@]3(c4cc(C)c(=O)n(C)c4)N=C(N)c4c(F)cccc43)c2)c1 [Example 1, (R)-5-(3-Amino-4-fluoro-1-(3-(5-(prop-1-ynyl)pyridin-3-yl)phenyl)-1H-isoindol-1-yl)-1,3-dimethylpyridin-2(1H)-one]
6	31	–	COc1cncc(-c2cccc(C3(c4cc(C)c(=O)n(C)c4)N=C(N)c4c(F)cccc43)c2)c1 (centres unmarked) [Example 20, 5-(3-amino-4-fluoro-1-(3-(5-methoxypyridin-3-yl)phenyl)-1H-isoindol-1-yl)-1,3-dimethylpyridin-2(1H)-one]
2	57	–	CC#Cc1cncc(-c2cc(C3(c4cc(C)c(=O)n(CC)c4)N=C(N)c4c(F)cccc43)ccn2)c1 (centres unmarked) [Example 2, 5-(3-Amino-4-fluoro-1-(5′-(prop-1-ynyl)-2,3′-bipyridin-4-yl)-1H-isoindol-1-yl)-1-ethyl-3-methylpyridin-2(1H)-one]
1	59	–	CC#Cc1cncc(-c2cc(C3(c4cc(CC)c(=O)n(CC)c4)N=C(N)c4c(F)cccc43)ccn2)c1 (centres unmarked) [Example 16, 5-(3-Amino-4-fluoro-1-(5′-(prop-1-ynyl)-2,3′-bipyridin-4-yl)-1H-isoindol-1-yl)-1,3-diethylpyridin-2(1H)-one]
8	26	–	Cc1cc(C2(c3cccc(-c4cncc(Cl)c4)c3)N=C(N)c3c(F)cccc32)cn(C)c1=O (centres unmarked) [Example 18, 5-(3-Amino-1-(3-(5-chloropyridin-3-yl)phenyl)-4-fluoro-1H-isoindol-1-yl)-1,3-dimethylpyridin-2(1H)-one]
